Source: PubChem BioAssay AID1919004 (Molecular Pharmacology Branch, DTP, NCI, 2023)

Tested on: 883617-216-R-J1-PDC complex spheroids, growth, % test/control
Assay: Anticancer human tumor 883617-216-R-J1-PDC patient-derived bladder carcinoma cell line growth inhibition [AhR]
Conditions: for IC50: curve of first compound; for viability, T/C: stronger effect = lower value; active = viability on the fitted dose curve at most 10% of control; inactive = the rest
Summary of the method: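 Spheroids combined tumor cells with HUVEC endothelial cells and human MSCs as stroma. AhR antagonists were paired with standard or investigational drugs, each dosed in half-log steps down from near clinical Cmax, or from 10 microM where Cmax was unknown.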

[1] = second compound 0.1 µM, first compound 0.0316 µM
[2] = second compound 0.1 µM, first compound 0.1 µM
[3] = second compound 0.1 µM, first compound 0.316 µM
[4] = second compound 0.1 µM, first compound 1 µM
[5] = second compound 0.1 µM, first compound 3.16 µM
[6] = second compound 0.1 µM, first compound 10 µM
[7] = second compound 0.316 µM, first compound 0.0316 µM
[8] = second compound 0.316 µM, first compound 0.1 µM
[9] = second compound 0.316 µM, first compound 0.316 µM
[10] = second compound 0.316 µM, first compound 1 µM
[11] = second compound 0.316 µM, first compound 3.16 µM
[12] = second compound 0.316 µM, first compound 10 µM
[13] = second compound 1 µM, first compound 0.0316 µM
[14] = second compound 1 µM, first compound 0.1 µM
[15] = second compound 1 µM, first compound 0.316 µM
[16] = second compound 1 µM, first compound 1 µM
[17] = second compound 1 µM, first compound 3.16 µM
[18] = second compound 1 µM, first compound 10 µM
[19] = second compound 3.16 µM, first compound 0.0316 µM
[20] = second compound 3.16 µM, first compound 0.1 µM
[21] = second compound 3.16 µM, first compound 0.316 µM
[22] = second compound 3.16 µM, first compound 1 µM
[23] = second compound 3.16 µM, first compound 3.16 µM
[24] = second compound 3.16 µM, first compound 10 µM
[25] = second compound 10 µM, first compound 0.0316 µM
[26] = second compound 10 µM, first compound 0.1 µM
[27] = second compound 10 µM, first compound 0.316 µM
[28] = second compound 10 µM, first compound 1 µM
[29] = second compound 10 µM, first compound 3.16 µM
[30] = second compound 10 µM, first compound 10 µM
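Note: exposure lasted 7 days after dosing on day 3 of spheroid growth.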

COc1cc(Nc2ncc3c(n2)-c2ccc(Cl)cc2C(c2c(F)cccc2OC)=NC3)ccc1C(=O)O + Cc1cncc(-c2nc(NCCc3c[nH]c4ccccc34)c3ncn(C(C)C)c3n2)c1
> 10000 nM: IC50 (second compound 0.1 µM) | IC50 (second compound 0.316 µM) | IC50 (second compound 1 µM) | IC50 (second compound 3.16 µM) | IC50 (second compound 10 µM)
inactive: viability, T/C [1] 83.8% | viability, T/C [2] 86.9% | viability, T/C [3] 81.7% | viability, T/C [4] 72.5% | viability, T/C [5] 73.8% | viability, T/C [6] 61.5% | viability, T/C [7] 86.3% | viability, T/C [8] 83.1% | viability, T/C [9] 81.7% | viability, T/C [10] 72.2% | viability, T/C [11] 73.6% | viability, T/C [12] 65.5% | viability, T/C [13] 91.8% | viability, T/C [14] 88.6% | viability, T/C [15] 75.3% | viability, T/C [16] 82.8% | viability, T/C [17] 80% | viability, T/C [18] 70.8% | viability, T/C [19] 92.2% | viability, T/C [20] 98% | viability, T/C [21] 102% | viability, T/C [22] 81.8% | viability, T/C [23] 81.2% | viability, T/C [24] 72.7% | viability, T/C [25] 54.4% | viability, T/C [26] 55% | viability, T/C [27] 53.1% | viability, T/C [28] 51.4% | viability, T/C [29] 56.4% | viability, T/C [30] 71.2%

NS(=O)(=O)OCC1CC(n2ccc3c(NC4CCc5ccccc54)ncnc32)CC1O (stereo not given) + Cc1cncc(-c2nc(NCCc3c[nH]c4ccccc34)c3ncn(C(C)C)c3n2)c1
active: viability, T/C [28] 6.98% | viability, T/C [29] 4.81% | viability, T/C [30] 2.51%
2790 nM: IC50 (second compound 1 µM)
< 31.6 nM: IC50 (second compound 10 µM)
2260 nM: IC50 (second compound 3.16 µM)
2750 nM: IC50 (second compound 0.1 µM)
inactive: viability, T/C [1] 118% | viability, T/C [2] 165% | viability, T/C [3] 209% | viability, T/C [4] 131% | viability, T/C [5] 43.6% | viability, T/C [6] 29.1% | viability, T/C [7] 128% | viability, T/C [8] 164% | viability, T/C [9] 225% | viability, T/C [10] 120% | viability, T/C [11] 44.5% | viability, T/C [12] 25.9% | viability, T/C [13] 141% | viability, T/C [14] 167% | viability, T/C [15] 212% | viability, T/C [16] 130% | viability, T/C [17] 48% | viability, T/C [18] 30.1% | viability, T/C [19] 141% | viability, T/C [20] 179% | viability, T/C [21] 204% | viability, T/C [22] 112% | viability, T/C [23] 33.2% | viability, T/C [24] 15.4% | viability, T/C [25] 48.1% | viability, T/C [26] 50.6% | viability, T/C [27] 28.6%
2990 nM: IC50 (second compound 0.316 µM)
